Data on one compound can be found in US20230391826A1, “COMPOSITIONS AND METHODS FOR TREATING DISEASES” (Sanford Burnham Prebys Medical Discovery Institute, priority 2020, published 2023).

The target of one data set is T1, EphA2 LBD (Homo sapiens, UniProt P29317).
T1 construct: made in house; host or cells: E. coli Origami 2(DE3)
The data set is described as follows: Isothermal titration calorimetry (ITC) with soluble EphA2 LBD. Format: binding. As for the experimental part: (FIG. 10A-10E) The EphA2 LBD was titrated at 200-250 μM into 10-12.5 μM of the indicated peptide.
For ITC, all peptides are dissolved in DMSO and both the EphA2 LBD and the peptides are diluted to obtain a final buffer containing 9.5 mM HEPES, pH 7.9, 95 mM NaCl, and 5% DMSO. The experiments are carried out at 296 K (23° C.) using an ITC200 calorimeter (Microcal). Two-microliter aliquots of a peptide solution are injected into the cell containing 205 μL EphA2 LBD. 200-400 μM peptides are titrated into 20-40 μM EphA2 LBD. Experimental data are analyzed using the Origin software package (Microcal). The integrated values for the reaction heats are normalized to the amount of injected peptide after blank subtraction.
For orientation: In ITC the heat of successive injections is recorded.

The next data set has as its system AKT. The data set is described as follows: Inhibition of AKT phosphorylation on S473 in PC3 cells. Format: cell-based. The protocol: (§1) (FIG. 2A) Dose-response curves for EphA2 autophosphorylation on tyrosine 588 (pY588; purple) and for downstream inhibition of AKT phosphorylation (magenta). PC3 cells were treated for 15 min with different concentrations of the indicated peptides. […] The graphs show quantifications from multiple blots (averages ±SE; the number of experiments used to generate each curve is shown in Table 3). […] (FIG. 2B) Examples of immunoblots of lysates from PC3 cells treated with the indicated concentrations of representative ligands. […] A white vertical line indicates removal of irrelevant lanes. […] The bars show averages ±SE, and the individual measurements are shown as black dots. […] Plots of Etop versus EC50 for pY588 in FIG. 2D and for pAKT inh in FIG. 2E. Averages ±SE are shown for the peptides and ephrinA1.

The nature of data set [1]: Peptide solubility in PBS/H2O/DMSO. It is filed as physicochemical. The protocol:
Peptide identity and purity are documented by mass spectrometry and high-performance liquid chromatography (HPLC). The peptide solubility values are determined. Concentrated peptide stocks are prepared in DMSO or H2O and stored frozen at −80° C.

Data set [2] addresses T2, EphA2 (Homo sapiens, UniProt P29317). The data set is described as follows: EphA2 autophosphorylation on tyrosine 588 in PC3 cells (immunoblot dose-response). It is filed as cell-based. On the set-up: EphA2 is the prevalent endogenously expressed EphA receptor in these cells; endogenous in cells; host or cells: PC3 prostate cancer cells. The protocol: as §1
To examine the agonistic properties of the different dimeric peptide ligands, EphA2 autophosphorylation on tyrosine 588 (Y588) was measured, which is indicative of receptor activation and mediates binding of SH2 domain-containing proteins that link EphA2 to various downstream signaling pathways (FIG. 7). For these experiments, PC3 prostate cancer cells were stimulated with the dimeric peptides because EphA2 is the prevalent endogenously expressed EphA receptor in these cells, allowing comparisons with ephrins.
A general note: Immunoblotting shows a protein as a band on a membrane.

Data set [3] concerns the target T2, EphA2. Kind of data set: Bias factor βlig (pY588 versus pAKT inhibition, PC3 cells, reference ephrinA1-Fc). It is filed as cell-based. Further details: EphA2 is the prevalent endogenously expressed EphA receptor in these cells; endogenous in cells; host or cells: PC3 prostate cancer cells. The protocol: FIG. 6 illustrates an example where Ligands can bias EphA2 signaling responses. The bias factor βlig was calculated for the indicated ligands using ephrinA1-Fc as the reference ligand. Statistical significance for the comparison of the different ligands with the reference ligand ephrinA1-Fc (βlig=0) was determined by one sample t test; *, P<0.05; **, P<0.01; ***, P<0.001; ****, P<0.0001.
FIG. 14A-14E illustrates an example where distinct factors are responsible for EphA2 biased signaling induced by different ligands. (FIG. 14A) Etop values for EphA2 Y588 phosphorylation, as in FIG. 2C. (FIG. 14B) Etop values for inhibition of AKT phosphorylation. (FIG. 14C) Graph of the ratios of the Etop values for EphA2 Y588 phosphorylation and inhibition of AKT phosphorylation, which are used in the βlig calculation. (FIG. 14D) Graph of the ratios of the EC50 values for EphA2 Y588 phosphorylation and inhibition of AKT phosphorylation, which are used in the βlig calculation. (FIG. 14E) Equation used to calculate the bias factor βlig for each ligand. The terms of the equation are rearranged, compared to equation (1) in the Materials and Methods, to better conform to the graphs in FIG. 14A-14D. **, P<0.01; ***, P<0.001; ****, P<0.0001; ns, not significant for the comparison with ephrinA1-Fc by one-way ANOVA and Dunnett's posthoc test.
The possibility of EphA2 biased signaling by analyzing the dose-response curves obtained with endogenous EphA2 in PC3 cells (FIG. 2A) was explored using approaches developed for GPCRs. This involves using EphA2 Y588 phosphorylation and AKT phosphorylation quantified as a function of ligand concentration to determine and compare the potency (EC50) and efficacy (Etop) for the two responses induced by different ligands. Remarkably, large differences among the ligands in the Etop values for Y588 phosphorylation (FIGS. 2C, 2D and 14A), but not in the Etop values for AKT inhibition (FIGS. 2E and 14B), were observed. In terms of relative efficacies for pY588 and pAKT inhibition, the C-terminally linked dimers and monomeric ligands behave differently from ephrinA1-Fc, while the N-terminally linked dimers and the head-to-tail dimer (8) are similar to ephrinA1-Fc (FIG. 14C). […] Thus, the type of linkage affects EphA2 signaling properties induced by the dimeric peptides.
The determined EC50 and Etop values allowed us to calculate the bias factor βlig for the two different responses induced by the various ligands relative to ephrinA1-Fc as the reference ligand (FIG. 14E). […] Remarkably, the bias originates from different mechanisms that depend on the class of ligands, with the N-terminally linked and head-to-tail dimers modulating relative potencies and the C-terminally-linked dimers and monomers modulating relative efficacies.

Converted amounts (≈) assume the structure as drawn. Read-outs that look alike come from different tables or passages of the source.

T2 sequence (P29317 24-976): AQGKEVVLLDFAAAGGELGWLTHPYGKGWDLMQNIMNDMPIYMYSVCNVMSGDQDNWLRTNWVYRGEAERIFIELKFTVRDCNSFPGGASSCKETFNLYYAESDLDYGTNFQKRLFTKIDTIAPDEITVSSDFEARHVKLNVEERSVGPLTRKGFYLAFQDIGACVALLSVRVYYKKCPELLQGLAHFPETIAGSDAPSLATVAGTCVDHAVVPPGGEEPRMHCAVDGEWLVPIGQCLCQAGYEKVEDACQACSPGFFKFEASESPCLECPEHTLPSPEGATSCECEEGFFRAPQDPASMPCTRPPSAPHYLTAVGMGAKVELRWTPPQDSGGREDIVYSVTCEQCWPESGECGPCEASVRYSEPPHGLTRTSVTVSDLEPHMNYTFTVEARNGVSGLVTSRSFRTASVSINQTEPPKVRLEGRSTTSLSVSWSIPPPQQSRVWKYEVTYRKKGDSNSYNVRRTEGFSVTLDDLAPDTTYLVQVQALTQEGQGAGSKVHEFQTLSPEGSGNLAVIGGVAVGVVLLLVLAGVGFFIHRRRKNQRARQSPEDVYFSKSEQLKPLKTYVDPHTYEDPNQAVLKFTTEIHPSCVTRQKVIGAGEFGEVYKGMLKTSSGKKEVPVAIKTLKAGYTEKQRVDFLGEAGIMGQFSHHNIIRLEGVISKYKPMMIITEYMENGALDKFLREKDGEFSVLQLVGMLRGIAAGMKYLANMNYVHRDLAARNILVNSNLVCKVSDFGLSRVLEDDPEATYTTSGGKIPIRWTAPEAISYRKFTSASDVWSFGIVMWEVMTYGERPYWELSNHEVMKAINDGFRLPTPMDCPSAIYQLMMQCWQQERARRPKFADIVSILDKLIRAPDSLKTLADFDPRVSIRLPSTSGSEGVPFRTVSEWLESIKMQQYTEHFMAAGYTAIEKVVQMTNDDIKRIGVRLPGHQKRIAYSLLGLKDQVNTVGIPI
T1 sequence (P29317 28-200): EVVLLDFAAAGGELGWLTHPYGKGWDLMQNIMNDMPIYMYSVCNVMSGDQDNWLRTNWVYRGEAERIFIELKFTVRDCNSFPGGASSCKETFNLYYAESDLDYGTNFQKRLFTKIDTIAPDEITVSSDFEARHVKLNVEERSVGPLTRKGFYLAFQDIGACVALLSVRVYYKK

For `CC(C)C[C@H](NC(=O)[C@H](Cc1c[nH]c2ccccc12)NC(=O)[C@H](C)NC(=O)CNC(=O)[C@@H](N)CSSC[C@H](N)C(=O)NCC(=O)N[C@@H](C)C(=O)N[C@@H](Cc1c[nH]c2ccccc12)C(=O)N[C@@H](CC(C)C)C(=O)N[C@@H](C)C(=O)N[C@@H](Cc1ccc(O)cc1)C(=O)N1CCC[C@H]1C(=O)N[C@@H](CC(=O)O)C(=O)N[C@@H](CO)C(=O)N[C@H](C(=O)N1CCC[C@H]1C(=O)N[C@@H](Cc1ccc(O)cc1)C(=O)N[C@@H](CCCNC(=N)N)C(=O)N1CCC[C@H]1C(=O)N[C@@H](CCCCN)C(=O)O)C(C)C)C(=O)N[C@@H](C)C(=O)N[C@@H](Cc1ccc(O)cc1)C(=O)N1CCC[C@H]1C(=O)N[C@@H](CC(=O)O)C(=O)N[C@@H](CO)C(=O)N[C@H](C(=O)N1CCC[C@H]1C(=O)N[C@@H](Cc1ccc(O)cc1)C(=O)N[C@@H](CCCNC(=N)N)C(=O)N1CCC[C@H]1C(=O)N[C@@H](CCCCN)C(=O)O)C(C)C` [compound 5, CGA-WLA-YRPK dimer (N-ter)], the equilibrium dissociation constant (Kd) (usually a measure of binding affinity in units of concentration) at EphA2 LBD was determined as 380 ± 80 nM; on EphA2 LBD (Table 3, soluble EphA2 LBD), 21 ± 3 nM. Also, the “N (binding stoichiometry by ITC)” value on EphA2 LBD (Table 3) is recorded as “N = 2.2 ± 0.2”. The “-TΔS” value at EphA2 LBD (Table 6) is listed as 21.93 ± 0.31 kcal/mol. The N at EphA2 LBD (Table 6, binding stoichiometry) was found to be 2.2 ± 0.2. In addition, the “ΔG” value on EphA2 LBD (Table 6, change in Gibbs energy) is -10.41 ± 0.10 kcal/mol. Also, the “ΔH” value on EphA2 LBD (Table 6, change in enthalpy) is -32.34 ± 0.21 kcal/mol. 0.068 ± 0.011 nM corresponded to half-maximal inhibition in the data set with AKT (PC3 cells) (IC50). Moreover, the EC50 in the data set with AKT (Table 3, PC3 cells treated for 15 min, read-out: ECsa pAKT inhlb.) was 0.09 ± 0.02 nM; on EphA2 [2] (read-out: EC50 PY588), 0.53 ± 0.07 nM. In addition, the “Etop pAKT inhlb” value with AKT (Table 3, PC3 cells, 15 min, 1-pAKT/AKT normalized to cells not treated with ligand) came to 1.0 ± 0.04. The solubility (commonly the concentration that dissolves in the medium under given conditions) in data set [1] (DMSO, third of PBS/H2O/DMSO, read-out: Solubility in DMSO) was 15000 µg/mL (≈ 4120 µM); in data set [1] (PBS, Table 4, first of PBS/H20/DMSO, read-out: Solubility in PBS), 5000 µg/mL (≈ 1370 µM); in data set [1] (PBS, first of PBS/H2O/DMSO, read-out: Solubility in PBS) it was 5000 µg/mL (≈ 1370 µM); in data set [1] (water, Table 4, second of PBS/H20/DMSO, read-out: Solubility in H20), 5000 µg/mL (≈ 1370 µM); in data set [1] (water, second of PBS/H2O/DMSO, read-out: Solubility in H2O), 5000 µg/mL (≈ 1370 µM). The “Etop pY588” value at EphA2 [2] (Table 3, 15 min, saturating ligand, pY588/EphA2 normalized to ephrinA1-Fc) was determined as 0.87 ± 0.04. Further, on EphA2 [2] (ephrinA1Fc = 1.00), the “Emax PY588” value is 0.78 ± 0.025. Moreover, on EphA2 [3] (Table 3, reference ligand ephrinA1-Fc (βlig=0)), the “βu (bias factor βlig)” value amounted to 066 ± 0.12. On EphA2 [3] (bias factor, reference ligand ephrinA1Fc), this compound had a Blig of 0.81 ± 0.09.
